Biological target: T1, γ-secretase (Homo sapiens, UniProt P49768)
T1 construct: endogenous in cells; host or cells: SKNBE2 cells carrying APP 695 wild type
Assay: Screening for γ-secretase-modulating activity in SKNBE2 cells carrying the APP 695-wild type (assay per Citron et al 1997)
Format: cell-based
Conditions: @ 1 uM; SKNBE2 cells carrying APP 695-wild type
Procedure: Screening of the Compounds of the Invention for γ-Secretase-Modulating Activity
Screening was carried out using SKNBE2 cells carrying the APP 695-wild type, grown in DMEM/NUT-mix F12 (HAM) provided by Gibco (cat no. 31330-38) containing 5% Serum/Fe supplemented with 1% non-essential amino acids.
Cells were grown to near confluency.
The screening was performed using the assay as described in Citron et al (1997) Nature Medicine 3: 67.

SMILES	inhibition at 1 µM
C=C(C)CC(C(=O)O)c1cc(-c2ccc(C(F)(F)F)cc2)nc(-c2cc3ccccc3s2)c1 (centres unmarked) [Example 28, 2-[2-Benzo[b]thiophen-2-yl-6-(4-trifluoromethyl-phenyl)-pyridin-4-yl]-4-methyl-pent-4-enoic acid]	0%
CC(C)CC(C(=O)O)c1cc(-c2ccc(C(F)(F)F)cc2)nc(-c2cc3ccccc3s2)c1 (centres unmarked) [Example 29, 2-[2-Benzo[b]thiophen-2-yl-6-(4-trifluoromethyl-phenyl)-pyridin-4-yl]-4-methyl-pentanoic acid]	57%
CC(C)CC(C(=O)O)c1cc(-c2ccc(C(F)(F)F)cc2)nc(-c2ccc(C(F)(F)F)nc2)c1 (centres unmarked) [Example 30, 4-Methyl-2-[6′-trifluoromethyl-6-(4-trifluoromethyl-phenyl)-[2,3′]bipyridinyl-4-yl]-pentanoic acid]	0%
C=C(C)CC(C(=O)O)c1cc(-c2ccc(C(F)(F)F)cc2)nc(-c2ccc(C(F)(F)F)nc2)c1 (centres unmarked) [Example 31, 4-Methyl-2-[6′-trifluoromethyl-6-(4-trifluoromethyl-phenyl)-[2,3′]bipyridinyl-4-yl]-pent-4-enoic acid]	59%
C=C(C)CC(C(=O)O)c1cc(-c2ccc(C)cc2)nc(-c2ccc(C(F)(F)F)cc2)c1 (centres unmarked) [Example 32, 4-Methyl-2-[2-p-tolyl-6-(4-trifluoromethyl-phenyl)-pyridin-4-yl]-pent-4-enoic acid]	7%
CC(C)CC(C(=O)O)c1cc(-c2ccc(C(F)(F)F)cc2)nc(-c2ccc3c(c2)OCO3)c1 (centres unmarked) [Example 33, 2-[2-Benzo[1,3]dioxol-5-yl-6-(4-trifluoromethyl-phenyl)-pyridin-4-yl]-4-methyl-pentanoic acid]	20%
C=C(C)CC(C(=O)O)c1cc(-c2ccc(C(F)(F)F)cc2)nc(-c2cccc(-c3ccccc3)c2)c1 (centres unmarked) [Example 34, 2-[2-Biphenyl-3-yl-6-(4-trifluoromethyl-phenyl)-pyridin-4-yl]-4-methyl-pent-4-enoic acid]	16%
CC(C)CC(C(=O)O)c1cc(-c2ccc(C(F)(F)F)cc2)nc(-c2cccc(-c3ccccc3)c2)c1 (centres unmarked) [Example 35, 2-[2-Biphenyl-3-yl-6-(4-trifluoromethyl-phenyl)-pyridin-4-yl]-4-methyl-pentanoic acid]	53%
CC(C)COc1cccc(-c2cc(C(CC(C)C)C(=O)O)cc(-c3ccc(C(F)(F)F)cc3)n2)c1 (centres unmarked) [Example 36, 2-[2-(3-Isobutoxy-phenyl)-6-(4-trifluoromethyl-phenyl)-pyridin-4-yl]-4-methyl-pentanoic acid]	41%
CC(C)CC(C(=O)O)c1cc(-c2ccc(Oc3ccccc3)cc2)nc(-c2ccc(C(F)(F)F)cc2)c1 (centres unmarked) [Example 37, 4-Methyl-2-[2-(4-phenoxy-phenyl)-6-(4-trifluoromethyl-phenyl)-pyridin-4-yl]-pentanoic acid]	73%
CC(C)CC(C(=O)O)c1cc(-c2ccccc2)nc(-c2ccc(C(F)(F)F)cc2)c1 (centres unmarked) [Example 38, 4-Methyl-2-[2-phenyl-6-(4-trifluoromethyl-phenyl)-pyridin-4-yl]-pentanoic acid]	8%
CC(C)CC(C(=O)O)c1cc(-c2ccc(C(F)(F)F)cc2)nc(-c2ccc(S(C)(=O)=O)cc2)c1 (centres unmarked) [Example 39, 2-[2-(4-Methanesulfonyl-phenyl)-6-(4-trifluoromethyl-phenyl)-pyridin-4-yl]-4-methyl-pentanoic acid]	18%
CC(C)CCN(c1ccc(C(F)(F)F)cc1)c1cc(CC(=O)O)cc(-c2ccc(C(F)(F)F)cc2)n1 [Example 42, [2-[(3-Methyl-butyl)-(4-trifluoromethyl-phenyl)-amino]-6-(4-trifluoromethyl-phenyl)-pyridin-4-yl]-acetic acid]	36%
O=C(O)Cc1cc(-c2ccc(C(F)(F)F)cc2)nc(N(CCC2CCCCC2)c2ccc(C(F)(F)F)cc2)c1 [Example 43, [2-[(2-Cyclohexyl-ethyl)-(4-trifluoromethyl-phenyl)-amino]-6-(4-trifluoromethyl-phenyl)-pyridin-4-yl]-acetic acid]	56%
CC(C)CC(C(=O)O)c1cc(-c2ccc(C(F)(F)F)cc2)nc(N(CCN2CCCCC2)c2ccc(C(F)(F)F)cc2)c1 (centres unmarked) [Example 45, 4-Methyl-2-[2-[(2-piperidin-1-yl-ethyl)-(4-trifluoromethyl-phenyl)-amino]-6-(4-trifluoromethyl-phenyl)-pyridin-4-yl]-pentanoic acid]	20%
CC(C)CCN(c1ccc(C(C)(C)C)cc1)c1cc(C(CC(C)C)C(=O)O)cc(-c2ccc(C(F)(F)F)cc2)n1 (centres unmarked) [Example 46, 2-[2-[(4-tert-Butyl-phenyl)-(3-methyl-butyl)-amino]-6-(4-trifluoromethyl-phenyl)-pyridin-4-yl]-4-methyl-pentanoic acid]	22%

Same assay, conditions: SKNBE2 cells carrying APP 695-wild type

SMILES	EC50
CC(C)CC(C(=O)O)c1cc(-c2ccc(C(F)(F)F)cc2)nc(N(CC(C)C)c2ccc(C(F)(F)F)cc2)c1 (centres unmarked) [Example 40, 2-[2-[Isobutyl-(4-trifluoromethyl-phenyl)-amino]-6-(4-trifluoromethyl-phenyl)-pyridin-4-yl]-4-methyl-pentanoic acid]	340 nM
CC(C)CCN(c1ccc(C(F)(F)F)cc1)c1cc(C(CC(C)C)C(=O)O)cc(-c2ccc(C(F)(F)F)cc2)n1 (centres unmarked) [Example 41, 4-Methyl-2-[2-[(3-methyl-butyl)-(4-trifluoromethyl-phenyl)-amino]-6-(4-trifluoromethyl-phenyl)-pyridin-4-yl]-pentanoic acid]	300 nM
CC(C)CC(C(=O)O)c1cc(-c2ccc(C(F)(F)F)cc2)nc(N(CCC2CCCCC2)c2ccc(C(F)(F)F)cc2)c1 (centres unmarked) [Example 44, 2-[2-[(2-Cyclohexyl-ethyl)-(4-trifluoromethyl-phenyl)-amino]-6-(4-trifluoromethyl-phenyl)-pyridin-4-yl]-4-methyl-pentanoic acid]	640 nM
CC(C)CCN(c1ccc(C(C)(C)C)cc1)c1cc(CC(=O)O)cc(-c2ccc(C(F)(F)F)cc2)n1 [Example 47, [2-[(4-tert-Butyl-phenyl)-(3-methyl-butyl)-amino]-6-(4-trifluoromethyl-phenyl)-pyridin-4-yl]-acetic acid]	1290 nM

Source: patent publication US7968725B2, “Pyridinyl modulators of γ-secretase” (Janssen Pharmaceutica N.V., priority 2008, dated 2011)
